How the values were obtained:
[1] = test system: virulence proteins of Staphylococcus aureus ATCC 29213; assay: Secretome analysis of virulence proteins; assay type: cell-based; details: 1.56 μM (0.5×MIC), 1.5 hours, supernatant
Description: The red dots represented proteins which were annotated as “Virulence” and “Secrete/extracellular” as subcellular location by UniprotKB. The curve is derived at FDR=0.05 and s0=0.1.
S. aureus ATCC 29213 cells were sub-cultured from an overnight culture to OD595 0.1 and then cultured for 5 hours at 37° C., 250 rpm. Cells were concentrated by centrifugation (3,000×g, 4° C., 15 minutes), washed with 1×PBS and resuspended in CAMH to give OD595 1.5. […] Cells were then concentrated by centrifugation (3,000×g, 15 minutes and 6,000×g, 5 minutes). The supernatant was filtered (0.2 μm) and then concentrated by Amicon Ultra 10 KDa filter. Protein concentration was quantified by Bradford assay.
To quench the reaction, dithiothreitol (12.5 mM; 25° C., 200 rpm) was added for 30 minutes. Endoprotinase LysC was subsequently added (Enzyme: protein ratio 1:200; 25° C., 700 rpm) for 2 hours. The samples were diluted 1:5 by 50 mM ammonium bicarbonate buffer and further digested by trypsin (Enzyme: protein ratio 1:20; 37° C.) for 16 hours. The reaction was quenched by the addition of formic acid until pH reached 2-3. Samples were then submitted to the HKU proteomics and metabolomics core facility for analysis.
The peptides were desalted using C18 StageTips. Eluted peptides were analyzed with nanoelute UPLC was coupled to Bruker TimsTOF Pro mass spectrometer. […]

[2] = test system: MRSA Mu3 cell membrane potential; assay: Membrane potential monitored by DiSC3(5); assay type: cell-based, Staphylococcus aureus
Description: FIG. 11 is a line graph showing compound 8 can depolarize Staphylococcus aureus cell membrane under sub-inhibitory concentration and hyperpolarize Staphylococcus aureus cell membrane under inhibitory concentration. Membrane potential was monitored by DiSc3(5) over time (s). Extracellular buffer contained 10 mM HEPEs buffer, 5 mM glucose and 100 mM NaCl, pH 7.1. At t=100 s, 6 μL different concentration of compound 8 and 10 mM valinomycin (Vln) were added to 594 μL MRSA Mu3 pre-incubated with 0.4 μM DiSC3(5). The fluorescence signal was further monitored for 500 s. Data represented the mean±S.D. of technical triplicates.
Typically, an overnight culture of MRSA Mu3 was sub-cultured 1:100 in fresh CAMH and regrown to exponential phase. The bacteria were harvested (3,000×g, 5 min), washed, and re-suspended in a solution with 10 mM HEPEs buffer, 5 mM glucose and 100 mM KCl or 100 mM NaCl (pH 7.2). The bacteria were diluted to OD595 0.3 with the same buffer. […] Bacteria were incubated in darkness for 20 minutes or until fluorescence signal become stable. Fluorescence signal was recorded using Hitachi F-4500 Florescence Spectrometer. In a 1 mL cuvette, 594 μL bacteria incubated with DiSC3(5) were added and the fluorescence was monitored for 100 s. […] The fluorescence was monitored for further 500 s. […]

CC(C)C[C@H](ONC(=O)[C@@H](COCc1ccccc1)ONC(=O)c1cc(C(F)(F)F)cc(C(F)(F)F)c1)C(=O)Nc1ccccc1 [Compound 8]
secretion of the virulence proteins [1]: can reduce the secretion of the virulence proteins
cell membrane potential under inhibitory concentration ([2]; inhibitory concentration): hyperpolarize
cell membrane potential under sub-inhibitory concentration ([2]; sub-inhibitory concentration): depolarize

Source: patent US20240315992A1, “AMINOXY ACID-BASED ANTIBACTERIAL COMPOUNDS AND METHODS THEREOF” (The University of Hong Kong, priority 2023, published 2024)
